IC50 and Ki data for 14 molecules are collected here from ChEMBL document CHEMBL1909046, “DrugMatrix in vitro pharmacology data”.

Data set [1] addresses Beta-1 adrenergic receptor (Homo sapiens, UniProt P08588). Briefly: DRUGMATRIX: Adrenergic beta1 radioligand binding (ligand: [125I] Cyanopindolol). In kind it is cell membranes, CHO-K1, Membrane. Particulars: Not Active = under 50% inhibition at 10 µM.
In data set [2] the target is T1, Type-2 angiotensin II receptor (Homo sapiens, UniProt P50052). Further: in other assays of this panel Not Active means under 50% inhibition at 10 µM.
T1 sequence (P50052 whole entry): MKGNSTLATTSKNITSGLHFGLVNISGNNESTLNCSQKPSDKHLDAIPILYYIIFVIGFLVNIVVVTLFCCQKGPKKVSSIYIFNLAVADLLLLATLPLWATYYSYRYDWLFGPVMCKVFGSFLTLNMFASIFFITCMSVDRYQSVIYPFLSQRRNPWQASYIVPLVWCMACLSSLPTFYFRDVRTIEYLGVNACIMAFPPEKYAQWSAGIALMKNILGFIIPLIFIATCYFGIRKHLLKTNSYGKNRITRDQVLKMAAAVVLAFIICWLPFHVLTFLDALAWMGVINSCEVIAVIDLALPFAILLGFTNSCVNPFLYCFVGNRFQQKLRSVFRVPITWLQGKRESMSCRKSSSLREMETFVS
In kind it is cell-based. Particulars: cho-k1.

Another data set concerns the target T2, Calcitonin receptor (Homo sapiens, UniProt P30988). Further: in other assays of this panel Not Active means under 50% inhibition at 10 µM.
T2 sequence (P30988 whole entry): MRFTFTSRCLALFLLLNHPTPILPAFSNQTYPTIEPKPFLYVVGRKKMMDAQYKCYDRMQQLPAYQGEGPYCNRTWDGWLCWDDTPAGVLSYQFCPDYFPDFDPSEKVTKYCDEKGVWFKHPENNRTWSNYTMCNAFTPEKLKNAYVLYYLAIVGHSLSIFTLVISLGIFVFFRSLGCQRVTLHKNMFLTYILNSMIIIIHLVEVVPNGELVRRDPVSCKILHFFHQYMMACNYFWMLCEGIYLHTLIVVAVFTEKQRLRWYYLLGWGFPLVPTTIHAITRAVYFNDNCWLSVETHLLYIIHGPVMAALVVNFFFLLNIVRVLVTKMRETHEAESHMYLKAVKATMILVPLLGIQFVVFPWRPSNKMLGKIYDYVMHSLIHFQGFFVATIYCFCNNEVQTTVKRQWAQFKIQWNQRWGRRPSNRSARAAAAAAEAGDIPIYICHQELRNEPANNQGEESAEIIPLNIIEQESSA
In kind it is cell membranes, Membrane. Particulars: t47d.

Data set [3] in a line: DRUGMATRIX: Tumor Necrosis Factor (TNF), Non-Selective radioligand binding (ligand: [125I] TNF-alpha). In kind it is cell membranes, Membrane. Particulars: u-937; Not Active = under 50% inhibition at 10 µM.
In the next data set the target is Vasopressin V1a receptor (Homo sapiens, UniProt P37288). In kind it is cell membranes, Membrane. Particulars: hek293. Further: in other assays of this panel Not Active means under 50% inhibition at 10 µM.
Chain of Vasopressin V1a receptor (P37288 whole entry): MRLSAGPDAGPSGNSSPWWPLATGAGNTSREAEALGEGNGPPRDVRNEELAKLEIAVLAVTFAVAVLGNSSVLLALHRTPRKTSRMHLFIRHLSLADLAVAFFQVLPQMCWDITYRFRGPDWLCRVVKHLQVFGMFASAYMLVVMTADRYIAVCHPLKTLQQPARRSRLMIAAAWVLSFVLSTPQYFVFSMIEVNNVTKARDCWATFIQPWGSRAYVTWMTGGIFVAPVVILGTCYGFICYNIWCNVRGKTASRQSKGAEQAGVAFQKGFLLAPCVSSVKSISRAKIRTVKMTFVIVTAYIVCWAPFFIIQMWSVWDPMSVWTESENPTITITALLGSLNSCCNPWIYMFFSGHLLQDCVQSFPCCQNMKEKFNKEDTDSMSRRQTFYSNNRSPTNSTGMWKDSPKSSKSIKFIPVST
For another data set, the target named is Cannabinoid receptor 1 (Homo sapiens, UniProt P21554). In kind it is cell membranes, Membrane. Particulars: chem-1. Further: in other assays of this panel Not Active means under 50% inhibition at 10 µM.
Chain of Cannabinoid receptor 1 (P21554 whole entry): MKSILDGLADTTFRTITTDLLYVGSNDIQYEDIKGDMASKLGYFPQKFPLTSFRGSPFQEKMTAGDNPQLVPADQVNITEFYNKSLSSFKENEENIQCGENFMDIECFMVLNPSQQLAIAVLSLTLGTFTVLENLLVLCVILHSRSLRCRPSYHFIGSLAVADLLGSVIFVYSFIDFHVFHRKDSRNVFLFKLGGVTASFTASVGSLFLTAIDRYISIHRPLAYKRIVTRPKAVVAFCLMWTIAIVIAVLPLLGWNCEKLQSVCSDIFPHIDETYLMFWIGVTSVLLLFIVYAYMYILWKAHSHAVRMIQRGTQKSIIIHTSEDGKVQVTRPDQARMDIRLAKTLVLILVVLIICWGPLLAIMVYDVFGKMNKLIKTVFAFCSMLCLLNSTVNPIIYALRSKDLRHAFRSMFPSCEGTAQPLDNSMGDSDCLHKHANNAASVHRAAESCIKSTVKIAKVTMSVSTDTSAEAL
Data set [4] deals with 5-hydroxytryptamine receptor 1B (Rattus norvegicus, UniProt P28564). In kind it is cell membranes, Wistar, Cerebral cortex, Membrane.
Chain of 5-hydroxytryptamine receptor 1B (P28564 whole entry): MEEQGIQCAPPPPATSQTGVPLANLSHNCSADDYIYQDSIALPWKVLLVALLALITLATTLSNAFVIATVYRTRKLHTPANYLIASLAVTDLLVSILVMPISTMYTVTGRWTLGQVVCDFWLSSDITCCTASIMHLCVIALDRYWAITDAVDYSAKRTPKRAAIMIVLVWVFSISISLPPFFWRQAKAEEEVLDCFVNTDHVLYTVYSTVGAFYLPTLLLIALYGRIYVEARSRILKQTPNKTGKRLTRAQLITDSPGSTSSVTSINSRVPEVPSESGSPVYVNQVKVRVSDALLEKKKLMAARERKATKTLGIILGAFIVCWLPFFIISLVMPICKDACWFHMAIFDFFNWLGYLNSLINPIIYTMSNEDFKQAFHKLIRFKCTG
The next data set deals with Cytochrome P450 3A4 (Homo sapiens, UniProt P08684). The settings on record: bti-tn-5b1-4.
Chain of Cytochrome P450 3A4 (P08684 whole entry): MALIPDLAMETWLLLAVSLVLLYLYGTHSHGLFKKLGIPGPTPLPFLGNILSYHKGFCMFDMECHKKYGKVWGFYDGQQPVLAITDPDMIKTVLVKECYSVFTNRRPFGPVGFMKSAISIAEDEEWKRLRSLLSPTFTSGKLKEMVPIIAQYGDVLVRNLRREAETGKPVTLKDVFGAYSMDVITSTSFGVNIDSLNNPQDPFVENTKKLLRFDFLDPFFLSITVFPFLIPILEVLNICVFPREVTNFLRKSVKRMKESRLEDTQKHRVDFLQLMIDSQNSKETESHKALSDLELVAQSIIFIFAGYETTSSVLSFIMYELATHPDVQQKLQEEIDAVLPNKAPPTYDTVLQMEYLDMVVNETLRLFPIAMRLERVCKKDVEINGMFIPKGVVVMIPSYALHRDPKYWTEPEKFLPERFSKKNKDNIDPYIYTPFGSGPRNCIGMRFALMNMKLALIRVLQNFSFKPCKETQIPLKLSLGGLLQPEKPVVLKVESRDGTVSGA

*1 amine or outer side, *2 acyl side, *3 side chain or, on linkers, in order; H or OH if unused. Where a SMILES comes first, the peptide text is derived from it. Bridges are numbered along the chain shown (N, C = ends). Roman numbers before positions name the chains, in order. [ ]: non-standard residue; d: D form. Actinocin(1to9) = Cc1c2oc3c(C)ccc(C(=O)[*:2])c3nc-2c(C(=O)[*:1])c(N)c1=O; NMeV = CN[C@H](C(=O)O)C(C)C; Sar = CNCC(=O)O

Chain of Beta-1 adrenergic receptor (P08588 whole entry): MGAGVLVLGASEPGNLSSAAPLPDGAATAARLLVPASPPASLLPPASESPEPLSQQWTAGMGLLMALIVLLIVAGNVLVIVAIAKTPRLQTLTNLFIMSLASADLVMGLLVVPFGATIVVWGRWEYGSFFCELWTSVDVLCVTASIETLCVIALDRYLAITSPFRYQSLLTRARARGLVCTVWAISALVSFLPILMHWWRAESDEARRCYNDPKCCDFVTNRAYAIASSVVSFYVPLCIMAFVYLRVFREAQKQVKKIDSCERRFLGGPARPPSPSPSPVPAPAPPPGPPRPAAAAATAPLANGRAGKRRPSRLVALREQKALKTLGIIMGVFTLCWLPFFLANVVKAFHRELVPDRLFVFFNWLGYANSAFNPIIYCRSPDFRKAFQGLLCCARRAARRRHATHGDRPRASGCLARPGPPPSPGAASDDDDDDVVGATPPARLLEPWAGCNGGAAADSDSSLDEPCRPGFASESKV

Turning to `Cc1cc(C2CCCCC2)n(O)c(=O)c1` [CICLOPIROX], the half-inhibitory concentration (IC50) entry (in data set [1] (cho-k1); in data set [2]; at Calcitonin receptor; in data set [3]; against Vasopressin V1a receptor; on Cannabinoid receptor 1) was “Not Active” each time. The IC50 entry (in data set [4]; at Cytochrome P450 3A4) was “Not Active” throughout. The Ki entry (in data set [3]; on Cytochrome P450 3A4) was “Not Active” throughout.
With `CC1=C2C(=CO[C@H](C)[C@H]2C)C(O)=C(C(=O)O)C1=O` [CITRININ], the IC50 entry (in data set [1] (cho-k1); in data set [2]; on Calcitonin receptor; in data set [3]; against Vasopressin V1a receptor; against Cannabinoid receptor 1) was “Not Active” in each case. In addition, the IC50 result (in data set [4]; against Cytochrome P450 3A4) was “Not Active” each time. The Ki result (in data set [3]; at Cytochrome P450 3A4) was “Not Active” in each case.
`CC(C)(C)NCC(O)c1cc(Cl)c(N)c(Cl)c1` (stereo unspecified) [CLENBUTEROL]: the IC50 in data set [1] (read-out: IC50) was 120 nM; in data set [2], “Not Active”; at Calcitonin receptor, “Not Active”; in data set [3], “Not Active”; against Vasopressin V1a receptor, “Not Active”; on Cannabinoid receptor 1, “Not Active”. Moreover, the IC50 result (in data set [4]; at Cytochrome P450 3A4) was “Not Active” in each case. The Ki was 69 nM in data set [1] (read-out: Ki), “Not Active” in data set [3] and “Not Active” at Cytochrome P450 3A4.
For `Clc1cccc(Cl)c1NC1=NCCN1` [CLONIDINE], the IC50 entry (in data set [1] (cho-k1); in data set [2]; on Calcitonin receptor; in data set [3]; against Vasopressin V1a receptor; against Cannabinoid receptor 1) was “Not Active” throughout. The IC50 entry (in data set [4]; against Cytochrome P450 3A4) was “Not Active” each time. Further, the inhibition constant Ki entry (in data set [3]; at Cytochrome P450 3A4) was “Not Active” throughout.
In the case of `Cc1onc(-c2ccccc2Cl)c1C(=O)N[C@@H]1C(=O)N2[C@@H]1SC(C)(C)[C@@H]2C(=O)O` [CLOXACILLIN], the IC50 result (in data set [1] (cho-k1); in data set [2]; at Calcitonin receptor; in data set [3]; against Vasopressin V1a receptor; on Cannabinoid receptor 1) was “Not Active” each time. The IC50 result (in data set [4]; at Cytochrome P450 3A4) was “Not Active” throughout. Besides, the Ki result (in data set [3]; at Cytochrome P450 3A4) was “Not Active” each time.
As to `CC1CC(OC(=O)C(O)c2ccccc2)CC(C)(C)C1` (stereo unspecified) [CYCLANDELATE], the half-inhibitory concentration (IC50) result (in data set [1] (cho-k1); in data set [2]; at Calcitonin receptor; in data set [3]; on Vasopressin V1a receptor; at Cannabinoid receptor 1) was “Not Active” throughout. The IC50 entry (in data set [4]; on Cytochrome P450 3A4) was “Not Active” throughout. In addition, the Ki result (in data set [3]; at Cytochrome P450 3A4) was “Not Active” in each case.
As to `Cc1c2oc3c(C)ccc(C(=O)N[C@@H]4C(=O)N[C@H](C(C)C)C(=O)N5CCC[C@H]5C(=O)N(C)CC(=O)N(C)[C@@H](C(C)C)C(=O)O[C@@H]4C)c3nc-2c(C(=O)N[C@@H]2C(=O)N[C@H](C(C)C)C(=O)N3CCC[C@H]3C(=O)N(C)CC(=O)N(C)[C@@H](C(C)C)C(=O)O[C@@H]2C)c(N)c1=O` [DACTINOMYCIN] (I: T[dV]P[Sar][NMeV] / II: T[dV]P[Sar][NMeV]; ester I:1-I:C, II:1-II:C; linker I:N-II:N via Actinocin(1to9)), the 50% inhibitory concentration (IC50) entry (in data set [1] (cho-k1); in data set [2]; on Calcitonin receptor; in data set [3]; on Vasopressin V1a receptor; against Cannabinoid receptor 1) was “Not Active” each time. Further, the IC50 entry (in data set [4]; against Cytochrome P450 3A4) was “Not Active” in each case. Besides, the Ki result (in data set [3]; at Cytochrome P450 3A4) was “Not Active” throughout.
Turning to `Cc1c(O)c(=O)ccn1C` [DEFERIPRONE], the IC50 entry (in data set [1] (cho-k1); in data set [2]; on Calcitonin receptor; in data set [3]; at Vasopressin V1a receptor; against Cannabinoid receptor 1) was “Not Active” throughout. Besides, the IC50 result (in data set [4]; on Cytochrome P450 3A4) was “Not Active” in each case. Moreover, the Ki result (in data set [3]; at Cytochrome P450 3A4) was “Not Active” throughout.
As to `O=c1oc2ccccc2c(O)c1Cc1c(O)c2ccccc2oc1=O` [DICUMAROL], the IC50 result (in data set [1] (cho-k1); in data set [2]; on Calcitonin receptor; in data set [3]; at Vasopressin V1a receptor; on Cannabinoid receptor 1) was “Not Active” each time. Besides, the IC50 entry (in data set [4]; at Cytochrome P450 3A4) was “Not Active” in each case. The Ki result (in data set [3]; on Cytochrome P450 3A4) was “Not Active” throughout.
As for `C[C@H]1O[C@@H](O[C@H]2[C@@H](O)C[C@H](O[C@H]3[C@@H](O)C[C@H](O[C@H]4CC[C@@]5(C)[C@H](CC[C@@H]6[C@@H]5C[C@@H](O)[C@]5(C)[C@@H](C7=CC(=O)OC7)CC[C@]65O)C4)O[C@@H]3C)O[C@@H]2C)C[C@H](O)[C@@H]1O` [DIGOXIN], the IC50 entry (in data set [1] (cho-k1); in data set [2]; on Calcitonin receptor; in data set [3]; at Vasopressin V1a receptor; against Cannabinoid receptor 1) was “Not Active” throughout. Moreover, the 50% inhibitory concentration (IC50) result (in data set [4]; on Cytochrome P450 3A4) was “Not Active” in each case. Moreover, the Ki result (in data set [3]; on Cytochrome P450 3A4) was “Not Active” in each case.
Take `C[C@H]1c2cccc(O)c2C(=O)C2=C(O)[C@]3(O)C(=O)C(C(N)=O)=C(O)[C@@H](N(C)C)[C@@H]3[C@@H](O)[C@@H]21.O` [DOXYCYCLINE]: the IC50 result (in data set [1] (cho-k1); in data set [2]; on Calcitonin receptor; in data set [3]; against Vasopressin V1a receptor; against Cannabinoid receptor 1) was “Not Active” throughout. The IC50 entry (in data set [4]; against Cytochrome P450 3A4) was “Not Active” in each case. The Ki entry (in data set [3]; at Cytochrome P450 3A4) was “Not Active” each time.
For the molecule `O=C(CCCN1CC=C(n2c(=O)[nH]c3ccccc32)CC1)c1ccc(F)cc1` [DROPERIDOL], the IC50 result (in data set [1] (cho-k1); in data set [2]; on Calcitonin receptor; in data set [3]; against Vasopressin V1a receptor; at Cannabinoid receptor 1) was “Not Active” throughout. The IC50 result (in data set [4]; at Cytochrome P450 3A4) was “Not Active” in each case. For the same molecule, the Ki entry (in data set [3]; on Cytochrome P450 3A4) was “Not Active” throughout.
Consider `OC(Cn1cncn1)(Cn1cncn1)c1ccc(F)cc1F` [FLUCONAZOLE], for which the IC50 result (in data set [1] (cho-k1); in data set [2]; on Calcitonin receptor; in data set [3]; at Vasopressin V1a receptor; against Cannabinoid receptor 1) was “Not Active” each time. Moreover, the 50% inhibitory concentration (IC50) entry (in data set [4]; on Cytochrome P450 3A4) was “Not Active” in each case. Besides, the Ki entry (in data set [3]; at Cytochrome P450 3A4) was “Not Active” throughout.
For `CC(C)C(=O)Nc1ccc([N+](=O)[O-])c(C(F)(F)F)c1` [FLUTAMIDE], the IC50 entry (in data set [1] (cho-k1); in data set [2]; at Calcitonin receptor; in data set [3]; at Vasopressin V1a receptor; at Cannabinoid receptor 1) was “Not Active” throughout. The IC50 result (in data set [4]; against Cytochrome P450 3A4) was “Not Active” in each case. Moreover, the Ki result (in data set [3]; on Cytochrome P450 3A4) was “Not Active” in each case.
